Drawing on patent US10669268B2, “Bicyclic derivatives” (Hoffmann-La Roche Inc., priority 2012, dated 2020), this text covers IC50 for 33 compounds.

SMILES strings stand for the structures.

For this test, the target named is ATX (human His-tagged) (Homo sapiens (Human), UniProt Q13822). The experiment in a line: Human ATX enzyme inhibition assay (fluorescence quenching, MR121 substrate). It counts as biochemical. The conditions noted are these: 30 nM ATX, 1 μM MR121 substrate, 30° C., pH 8.0. Put shortly: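 Tris-HCl buffer at pH 8.0 contained 140 mM NaCl, 5 mM KCl, 1 mM each CaCl2 and MgCl2, and 0.01% Triton X-100. The MR121 substrate (1 μM final) was incubated with enzyme for 15 min at 30 °C, and activity was read by fluorescence quenching.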

The term IC50 denotes the concentration at which inhibition is half-maximal. Lower therefore signals greater potency. For the compound `O=C(/C=C/c1ccc(OC(F)(F)F)cc1)N1C[C@@H]2CN(C(=O)C3CCc4[nH]nnc4C3)C[C@@H]2C1` (stereo partly drawn) [Example 15.43], inhibition was half-maximal at 130 nM (IC50).

As for `O=C(CCc1ccc(C(F)(F)F)nc1)N1C[C@@H]2CN(C(=O)c3ccc4[nH]nnc4c3)C[C@H]2C1` [Example 15.62], the IC50 turned out to be 68 nM. Then `O=C(CCc1cc(Cl)cc(Cl)c1)N1C[C@@H]2CN(C(=O)c3ccc4[nH]c(=O)oc4c3)C[C@@H]2C1` [Example 1.02, 6-((3aR,6aS)-5-(3-(3,5-dichlorophenyl)propanoyl)octahydropyrrolo[3,4-c]pyrrole-2-carbonyl)benzo[d]oxazol-2(3H)-one], with 77 nM; and `O=C(OCC1C[C@H]2CC[C@@H]1C2)N1C[C@@H]2CN(C(=O)c3ccc4[nH]nnc4c3)C[C@@H]2C1` (stereo partly drawn) [Example 4.32, (3aS,6aR)-5-(1H-benzotriazole-5-carbonyl)-hexahydro-pyrrolo[3,4-c]pyrrole-2-carboxylic acid (1R,4S)-1-bicyclo[2.2.1]hept-2-ylmethyl ester], with 3850 nM.

For `CS(=O)(=O)c1cc(COC(=O)N2C[C@H]3CCN(C(=O)c4ccc5[nH]nnc5c4)C[C@@H]3C2)cc(C(F)(F)F)c1` (relative stereo) [Example 4.01, trans-5-(1H-benzotriazole-5-carbonyl)-octahydro-pyrrolo[3,4-c]pyridine-2-carboxylic acid 3-methanesulfonyl-5-trifluoromethyl-benzyl ester], the IC50 is 41 nM. This IC50 is about 94-fold lower than that of the compound before.

Take `CCOc1cc(C#N)ccc1OCC(=O)N1C[C@@H]2CN(C(=O)c3ccc4[nH]nnc4c3)C[C@H]2C1` [Example 19.08, 4-{2-[(3aS,6aS)-5-(1H-benzotriazole-5-carbonyl)-hexahydro-pyrrolo[3,4-c]pyrrol-2-yl]-2-oxo-ethoxy}-3-ethoxy-benzonitrile]: the IC50 was 36 nM. This IC50 and that of the compound before are within 1.5-fold of each other. Then `N#Cc1ccc(/C=C/C(=O)N2C[C@@H]3CN(C(=O)c4ccc5[nH]nnc5c4)C[C@H]3C2)cc1` [Example 15.23], with 32 nM; and `O=C(OCc1cc(Cl)cc(OC(F)(F)F)c1)N1C[C@@H]2CN(C(=O)c3ccc4[nH]nnc4c3)C[C@@H]2C1` [Example 4.27, (3aS,6aR)-5-(1H-benzotriazole-5-carbonyl)-hexahydro-pyrrolo[3,4-c]pyrrole-2-carboxylic acid 3-chloro-5-trifluoromethoxy-benzyl ester], with 4 nM.

Consider `COC(c1cccc(COC(=O)N2C[C@@H]3CN(C(=O)c4ccc5[nH]nnc5c4)C[C@@H]3C2)c1)C(F)(F)F` (stereo partly drawn) [Example 4.20, cis-5-(1H-benzotriazole-5-carbonyl)-hexahydro-pyrrolo[3,4-c]pyrrole-2-carboxylic acid 3-(2,2,2-trifluoro-1-methoxy-ethyl)-benzyl ester], for which the IC50 is 722 nM. Then `O=C(/C=C/c1ccc(Cl)cc1Cl)N1CC[C@@H]2CN(C(=O)c3ccc4[nH]nnc4c3)C[C@@H]2CC1` [Example 15.30], with 14 nM. To `O=C(/C=C/c1cc(Cl)cc(Cl)c1)N1C[C@H]2CCN(C(=O)c3ccc4[nH]nnc4c3)C[C@@H]2C1` [Example 15.76] belongs 13 nM. Then `O=C(OCc1ccc(OCC(F)(F)F)cc1)N1CC[C@@H]2CN(C(=O)c3ccc4[nH]nnc4c3)C[C@@H]2CC1` [Example 1.48, (3aS,8aR)-2-(1H-benzotriazole-5-carbonyl)-octahydro-pyrrolo[3,4-d]azepine-6-carboxylic acid 4-(2,2,2-trifluoro-ethoxy)-benzyl ester], with 7.5 nM. As for `O=C(CCc1ccc(-c2ccccn2)cc1)N1C[C@@H]2CN(C(=O)c3ccc4[nH]nnc4c3)C[C@H]2C1` [Example 17.13, 1-[(3aR,6aR)-5-(1H-benzotriazole-5-carbonyl)-hexahydro-pyrrolo[3,4-c]pyrrol-2-yl]-3-(4-pyridin-2-yl-phenyl)-propan-1-one], the IC50 was 31 nM.

The compound `O=C(CCc1ccc(OC(F)(F)F)cc1)N1C[C@@H]2CN(C(=O)c3ccc4[nH]nnc4c3F)C[C@H]2C1` [Example 1.59, 1-[(3aR,6aR)-5-(4-fluoro-1H-benzotriazole-5-carbonyl)-hexahydro-pyrrolo[3,4-c]pyrrol-2-yl]-3-(4-trifluoromethoxy-phenyl)-propan-1-one] registered an IC50 of 6 nM. In the case of `O=C(c1ccc(-c2ccc(Cl)cc2)cc1)N1C[C@@H]2CN(C(=O)[C@@H]3CCc4[nH]nnc4C3)C[C@H]2C1` [Example 19.11, [(3aS,6aS)-5-(4′-chloro-biphenyl-4-carbonyl)-hexahydro-pyrrolo[3,4-c]pyrrol-2-yl]-(R)-4,5,6,7-tetrahydro-1H-benzotriazol-5-yl-methanone], it took 8 nM to reach half-maximal inhibition (IC50). This IC50 and that of the compound before are within 1.5-fold of each other. In turn, `CN(Cc1cnn[nH]1)C(=O)N1C[C@H]2CCN(C(=O)CCc3ccc(OC(F)(F)F)cc3)CC[C@H]2C1` [Example 17.01, (3aR,8aS)-N-((1H-1,2,3-triazol-5-yl)methyl)-N-methyl-6-(3-(4-(trifluoromethoxy)phenyl)-propanoyl)octahydropyrrolo[3,4-d]azepine-2(1H)-carboxamide] displayed an IC50 of 85 nM. Take `O=C(/C=C/c1cc(Cl)cc(OC(F)(F)F)c1)N1C[C@@H]2CN(C(=O)c3ccc4[nH]nnc4c3)C[C@H]2C1` [Example 15.48]: inhibition was half-maximal at 6 nM (IC50). Then `O=C(CCc1ccc(C(F)(F)F)cc1)N1C[C@@H]2CN(C(=O)c3ccc4[nH]nnc4c3)C[C@H]2C1` [Example 15.59], with 11 nM; and `Cc1cc(OC(F)(F)F)ccc1CCC(=O)N1CC[C@@H]2CN(C(=O)c3ccc4[nH]nnc4c3)C[C@@H]2CC1` [Example 17.06, 1-((3aR,8aS)-2-(1H-benzo[d][1,2,3]triazole-5-carbonyl)octahydropyrrolo[3,4-d]azepin-6(7H)-yl)-3-(2-methyl-4-(trifluoromethoxy)phenyl)-propan-1-one], with 10 nM. Then `CC(C)c1cc(C#N)ccc1COC(=O)N1C[C@@H]2CN(C(=O)[C@@H]3CCc4[nH]nnc4C3)C[C@H]2C1` [Example 4.46, (3aS,6aS)-5-((R)-4,5,6,7-tetrahydro-1H-benzotriazole-5-carbonyl)-hexahydro-pyrrolo[3,4-c]pyrrole-2-carboxylic acid 4-cyano-2-isopropyl-benzyl ester], with 5 nM; and `O=C(OCc1cc(Cl)cc(Cl)c1)N1C[C@H]2C[C@H](Oc3ccc4[nH]c(=O)oc4c3)C[C@H]2C1` [Example 3, (3aR,5s,6aS)-3,5-Dichlorobenzyl 5-(2-oxo-2,3-dihydrobenzo[d]oxazol-6-yloxy)hexahydrocyclopenta[c]pyrrole-2(1H)-carboxylate], with 36 nM; and `O=C(COc1ccc(OC(F)(F)F)cc1Cl)N1C[C@@H]2CN(C(=O)c3ccc4[nH]nnc4c3)C[C@H]2C1` [Example 15.91], with 12 nM. Then `O=C(/C=C/c1ccc(Cl)cc1)N1C[C@H]2CCN(C(=O)c3ccc4[nH]nnc4c3)CC[C@H]2C1` [Example 15.19], with 9 nM; and `O=C(OCc1ccc(OC(F)(F)F)cc1)N1C[C@@H]2CN(C(=O)c3cc(F)c4[nH]nnc4c3)C[C@H]2C1` [Example 1.53, (3aS,6aS)-5-(7-fluoro-1H-benzotriazole-5-carbonyl)-hexahydro-pyrrolo[3,4-c]pyrrole-2-carboxylic acid 4-trifluoromethoxy-benzyl ester], with 52 nM. For the compound `CC(C)c1cc(C#N)ccc1CCC(=O)N1C[C@@H]2CN(C(=O)c3ccc4[nH]nnc4c3)C[C@H]2C1` [Example 19.22, 4-[3-[(3aR,6aR)-5-(1H-benzotriazole-5-carbonyl)-1,3,3a,4,6,6a-hexahydropyrrolo[3,4-c]pyrrol-2-yl]-3-oxopropyl]-3-propan-2-ylbenzonitrile], the IC50 turned out to be 2 nM. Then `O=C(OCc1ccc(F)cc1C(F)(F)F)N1CC[C@@H]2CN(C(=O)c3ccc4[nH]nnc4c3)C[C@H]2C1` (relative stereo) [Example 1.30, trans-2-(1H-benzotriazole-5-carbonyl)-octahydro-pyrrolo[3,4-c]pyridine-5-carboxylic acid 4-fluoro-2-trifluoromethyl-benzyl ester], with 20 nM; and `O=C(COc1ccccc1)N1C[C@@H]2CN(C(=O)c3ccc4[nH]nnc4c3)C[C@H]2C1` [Example 15.95], with 1900 nM; and `O=C(/C=C/c1ccc(OC(F)(F)F)cc1)N1CC[C@@H]2CN(C(=O)N3CCc4[nH]nnc4C3)C[C@@H]2CC1` [Example 8.01], with 2 nM. To `O=C(c1ccc2ccccc2c1)N1C[C@@H]2CN(C(=O)c3ccc4[nH]nnc4c3)C[C@H]2C1` [Example 19.06, (1H-benzotriazol-5-yl)-[(3aR,6aR)-5-(naphthalene-2-carbonyl)-hexahydro-pyrrolo[3,4-c]pyrrol-2-yl]-methanone] belongs 250 nM.

`COc1cc(Cl)cc(COC(=O)N2C[C@@H]3CN(C(=O)c4ccc5[nH]nnc5c4)C[C@@H]3C2)c1` [Example 4.30, (3aR,6aS)-3-chloro-5-methoxybenzyl 5-(1H-benzo[d][1,2,3]triazole-5-carbonyl)hexahydropyrrolo[3,4-c]pyrrole-2(1H)-carboxylate]: the IC50 was 50 nM. For the compound `O=C(CCc1ccc(-c2ccccc2)nc1)N1C[C@@H]2CN(C(=O)c3ccc4[nH]nnc4c3)C[C@H]2C1` [Example 15.85], half-maximal inhibition (IC50) required 29 nM. To `O=C(COc1ccccc1-c1ccccc1)N1C[C@@H]2CN(C(=O)c3ccc4[nH]nnc4c3)C[C@H]2C1` [Example 15.88] belongs 27 nM; to `O=C(OCc1cc(Cl)cc(Cl)c1)N1CC[C@@H]2CN(C(=O)c3ccc4[nH]nnc4c3)C[C@H]2C1` (single isomer, unassigned) [Example 11B, trans-3,5-dichlorobenzyl 2-(1H-benzo[d][1,2,3]triazole-5-carbonyl)-hexahydro-1H-pyrrolo[3,4-c]pyridine-5(6H)-carboxylate], 9 nM.
